Test results reported in ChEMBL document CHEMBL1201862, “PubChem BioAssay data set” (2004).
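Values below derive from 48-hour exposures of cells grown in 96-well plates, with endpoints linearly interpolated between the two concentrations bracketing the appropriate inhibition level. GI50: concentration for 50% inhibition of growth.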 The source made the active and inactive calls. Cut-off read from the data, not from the text of the source: active = GI50 up to about 1.1 µM and inactive = higher. *1 amine or outer side, *2 acyl side, *3 side chain or, on linkers, in order; H or OH if unused. Where a SMILES comes first, the peptide text is derived from it. [ ]: non-standard residue; d: D form. The star is where a group is joined. ξ: configuration not given here. X26 = O=C([C@H]1CCC[C@H]1N[*:1])[*:2]; ξW = NC(Cc1c[nH]c2ccccc12)C(=O)O; ξF = NC(Cc1ccccc1)C(=O)O; Boc = CC(C)(C)OC(=O)*; ξK = NCCCCC(N)C(=O)O; ξT = CC(O)C(N)C(=O)O; tBu = CC(C)(C)*

Tests used:
Assay in all cases: growth of human tumour cells (NCI), 48 h
SNB-75 = system: SNB-75
SW-620 = system: SW-620
MOLT-4 = system: MOLT-4
K562 = system: K562
SNB-19 = system: SNB-19
OVCAR-4 = system: OVCAR-4
HOP-62 = system: HOP-62
OVCAR-3 = system: OVCAR-3
LOX IMVI = system: LOX IMVI
ACHN = system: ACHN
SF-539 = system: SF-539
SK-MEL-5 = system: SK-MEL-5
DLD-1 = system: DLD-1
EKVX = system: EKVX
CCRF-CEM = system: CCRF-CEM
SK-OV-3 = system: SK-OV-3
NCI-H522 = system: NCI-H522
MCF7 = system: MCF7
NCI/ADR-RES = system: NCI/ADR-RES
Hs-578T = system: Hs-578T

Row | SMILES | GI50 (SNB-75) | GI50 (SW-620) | GI50 (MOLT-4) | GI50 (K562) | GI50 (SNB-19) | GI50 (OVCAR-4) | GI50 (HOP-62) | GI50 (OVCAR-3) | GI50 (LOX IMVI) | GI50 (ACHN) | GI50 (SF-539) | GI50 (SK-MEL-5) | GI50 (DLD-1) | GI50 (EKVX) | GI50 (CCRF-CEM) | GI50 (SK-OV-3) | GI50 (NCI-H522) | GI50 (MCF7) | GI50 (NCI/ADR-RES) | GI50 (Hs-578T)
1 | Nc1nc(N)c(-c2ccccc2)c(C(=O)Nc2ccc(Cl)c(Cl)c2)n1 | > 100 µM (inactive) | > 100 µM (inactive) | > 100 µM (inactive) | > 100 µM (inactive) | > 100 µM (inactive) | > 100 µM (inactive) | > 100 µM (inactive) | > 100 µM (inactive) | > 100 µM (inactive) | > 100 µM (inactive) | > 100 µM (inactive) | > 100 µM (inactive) | > 100 µM (inactive) | > 100 µM (inactive) | – | – | – | – | – | –
2 | O=C1C(c2ccccc2)=C(c2ccccc2)C(c2ccc(-c3ccc(C4=C(c5ccccc5)C(=O)C(c5ccccc5)=C4c4ccccc4)cc3)cc2)=C1c1ccccc1 | 48.1 µM (inactive) | > 100 µM (inactive) | 77.8 µM (inactive) | > 100 µM (inactive) | > 100 µM (inactive) | > 100 µM (inactive) | > 100 µM (inactive) | > 100 µM (inactive) | > 100 µM (inactive) | – | > 100 µM (inactive) | > 100 µM (inactive) | > 100 µM (inactive) | > 100 µM (inactive) | > 100 µM (inactive) | > 100 µM (inactive) | > 100 µM (inactive) | – | – | –
3 | Cc1ccc2c(c1)CN1c3ccc(C)cc3CN2C1c1ccccc1O | 0.667 µM (active) | 61.9 µM (inactive) | 35.2 µM (inactive) | 34.7 µM (inactive) | – | 57 µM (inactive) | 85.9 µM (inactive) | 21.5 µM (inactive) | 58.5 µM (inactive) | 40.3 µM (inactive) | 49 µM (inactive) | 13.7 µM (inactive) | 26.5 µM (inactive) | 7.19 µM (inactive) | 47.9 µM (inactive) | > 100 µM (inactive) | 65.6 µM (inactive) | – | – | –
4 | O=C1CC2CC=C[C@H]3c4cc5c(cc4C(=O)N1C23)OCO5 (some centres undefined) | > 50 µM (inactive) | > 50 µM (inactive) | > 50 µM (inactive) | > 50 µM (inactive) | > 50 µM (inactive) | – | > 50 µM (inactive) | > 50 µM (inactive) | > 50 µM (inactive) | > 50 µM (inactive) | > 50 µM (inactive) | – | > 50 µM (inactive) | > 50 µM (inactive) | > 50 µM (inactive) | > 50 µM (inactive) | > 50 µM (inactive) | – | – | –
5 | Cc1ccc(NC(=O)SCCC(=O)O)cc1 | 8.95 µM (inactive) | > 100 µM (inactive) | > 100 µM (inactive) | > 100 µM (inactive) | > 100 µM (inactive) | > 100 µM (inactive) | > 100 µM (inactive) | > 100 µM (inactive) | > 100 µM (inactive) | > 100 µM (inactive) | > 100 µM (inactive) | – | > 100 µM (inactive) | > 100 µM (inactive) | > 100 µM (inactive) | – | > 100 µM (inactive) | – | – | –
6 | CN(O)C(=O)c1ccc(OCc2cccc(Cl)c2)cc1 | 47.1 µM (inactive) | 32.8 µM (inactive) | 9.64 µM (inactive) | 22.6 µM (inactive) | 24.6 µM (inactive) | 21.6 µM (inactive) | 16.7 µM (inactive) | 19.2 µM (inactive) | 7.94 µM (inactive) | 8.51 µM (inactive) | 19 µM (inactive) | 27.8 µM (inactive) | – | 30.3 µM (inactive) | 5.12 µM (inactive) | 24.3 µM (inactive) | 13.1 µM (inactive) | 32.4 µM (inactive) | 13.7 µM (inactive) | 71.3 µM (inactive)
7 | COc1ccc(/C(CC2OC(=O)c3ccccc32)=N\NC(=O)C[N+](C)(C)C)cc1 (centres undefined) | 27.7 µM (inactive) | 25.5 µM (inactive) | 23.7 µM (inactive) | 19.2 µM (inactive) | 29.5 µM (inactive) | 22.6 µM (inactive) | 19.2 µM (inactive) | 30.3 µM (inactive) | 24.1 µM (inactive) | 28.2 µM (inactive) | 31.2 µM (inactive) | 22.5 µM (inactive) | – | 39.4 µM (inactive) | 25.1 µM (inactive) | 38.8 µM (inactive) | 24.7 µM (inactive) | 42 µM (inactive) | 21.2 µM (inactive) | 36.7 µM (inactive)
8 | COc1cc(Br)c(CC2NCCc3cc(OC)c(OC)cc32)cc1OC (centres undefined) | 70.3 µM (inactive) | > 100 µM (inactive) | 46.6 µM (inactive) | 32.8 µM (inactive) | > 100 µM (inactive) | > 100 µM (inactive) | > 100 µM (inactive) | 84.9 µM (inactive) | – | 79.1 µM (inactive) | – | – | > 100 µM (inactive) | > 100 µM (inactive) | > 100 µM (inactive) | > 100 µM (inactive) | > 100 µM (inactive) | – | – | –
9 | COC(=O)/C(C)=C/[N+](=O)[O-] | 16.3 µM (inactive) | 5.38 µM (inactive) | 11 µM (inactive) | 3.4 µM (inactive) | 17.1 µM (inactive) | 17.5 µM (inactive) | 25.4 µM (inactive) | 16 µM (inactive) | 18.7 µM (inactive) | 19.5 µM (inactive) | 18.8 µM (inactive) | 23 µM (inactive) | 1.93 µM (inactive) | 15.9 µM (inactive) | 2.59 µM (inactive) | 19.2 µM (inactive) | – | – | – | –
10 | COc1ccccc1NS(=O)(=O)c1cc(C(C)(C)C)ccc1OCCOc1ccc(C(C)(C)C)cc1S(=O)(=O)Nc1ccccc1OC | > 100 µM (inactive) | > 100 µM (inactive) | > 100 µM (inactive) | > 100 µM (inactive) | > 100 µM (inactive) | > 100 µM (inactive) | > 100 µM (inactive) | > 100 µM (inactive) | > 100 µM (inactive) | > 100 µM (inactive) | > 100 µM (inactive) | > 100 µM (inactive) | > 100 µM (inactive) | > 100 µM (inactive) | > 100 µM (inactive) | > 100 µM (inactive) | – | – | – | –
11 | N#Cc1cccc(C2ON=C(c3ccc([N+](=O)[O-])cc3)N2C23CC4CC(CC(C4)C2)C3)c1 (centres undefined) | > 100 µM (inactive) | > 100 µM (inactive) | 6.68 µM (inactive) | > 100 µM (inactive) | > 100 µM (inactive) | 26.9 µM (inactive) | > 100 µM (inactive) | 39.3 µM (inactive) | 74.1 µM (inactive) | > 100 µM (inactive) | > 100 µM (inactive) | 43.6 µM (inactive) | – | > 100 µM (inactive) | > 100 µM (inactive) | > 100 µM (inactive) | 24.3 µM (inactive) | 34.4 µM (inactive) | > 100 µM (inactive) | 39.8 µM (inactive)
12 | CC(NC(=O)C(N)CC(=O)O)NC(=O)C1CCC1 (centres undefined) | > 100 µM (inactive) | > 100 µM (inactive) | > 100 µM (inactive) | > 100 µM (inactive) | > 100 µM (inactive) | > 100 µM (inactive) | > 100 µM (inactive) | > 100 µM (inactive) | > 100 µM (inactive) | > 100 µM (inactive) | > 100 µM (inactive) | > 100 µM (inactive) | – | > 100 µM (inactive) | > 100 µM (inactive) | 28.2 µM (inactive) | > 100 µM (inactive) | > 100 µM (inactive) | > 100 µM (inactive) | > 100 µM (inactive)
13 | C[C@]12CCC(=O)C=C1CC[C@@H]1C2CC[C@]2(C)Nc3[nH]ncc3CC12 (some centres undefined) | 30.3 µM (inactive) | > 100 µM (inactive) | > 100 µM (inactive) | > 100 µM (inactive) | – | > 100 µM (inactive) | > 100 µM (inactive) | > 100 µM (inactive) | – | > 100 µM (inactive) | > 100 µM (inactive) | > 100 µM (inactive) | > 100 µM (inactive) | 77.4 µM (inactive) | > 100 µM (inactive) | > 100 µM (inactive) | – | – | – | –
14 | CC(OC(C)(C)C)C1NC(=O)C(CCCCNC(=O)OC(C)(C)C)NC(=O)C(Cc2c[nH]c3ccccc23)NC(=O)C(Cc2ccccc2)NC(=O)[C@H]2CCC[C@H]2NC(=O)C(Cc2ccccc2)NC1=O (some centres undefined) (cyclo([X26][ξF][ξW][ξK](Boc)[ξT](tBu)[ξF])) | 5.3 µM (inactive) | > 100 µM (inactive) | 14.2 µM (inactive) | 9.57 µM (inactive) | 30 µM (inactive) | > 100 µM (inactive) | > 100 µM (inactive) | > 100 µM (inactive) | 16.1 µM (inactive) | > 100 µM (inactive) | 75.9 µM (inactive) | 3.13 µM (inactive) | – | > 100 µM (inactive) | 9.06 µM (inactive) | 48 µM (inactive) | 61.7 µM (inactive) | 11.6 µM (inactive) | > 100 µM (inactive) | 2.67 µM (inactive)
15 | O=C(/C=C/c1ccccc1)c1ccccc1 [CHALCONE] | > 10 µM (inactive) | 3.34 µM (inactive) | 0.938 µM (active) | > 4.84 µM (inactive) | > 10 µM (inactive) | > 10 µM (inactive) | > 10 µM (inactive) | > 10 µM (inactive) | 1.9 µM (inactive) | > 10 µM (inactive) | > 10 µM (inactive) | > 10 µM (inactive) | – | > 10 µM (inactive) | > 4.83 µM (inactive) | > 10 µM (inactive) | > 10 µM (inactive) | 2.7 µM (inactive) | > 10 µM (inactive) | > 10 µM (inactive)
16 | O=C1c2scnc2-c2nccc3c2c1nc1ccccc13 [KUANONIAMINE A] | 0.94 µM (active) | 0.288 µM (active) | 0.469 µM (active) | 0.682 µM (active) | 0.389 µM (active) | 1.16 µM (inactive) | 1.04 µM (active) | < 0.0134 µM (active) | 0.172 µM (active) | 0.955 µM (active) | 0.232 µM (active) | 0.0412 µM (active) | – | 2.92 µM (inactive) | 0.416 µM (active) | 2.54 µM (inactive) | 0.0169 µM (active) | 0.299 µM (active) | 0.231 µM (active) | 1.8 µM (inactive)
